Data as given in patent publication US6352824B1, “Redox reversible bipyridyl-osmium complex conjugates” (Roche Diagnostics Corporation, priority 1998, dated 2002).

Columns and labels:
[1] = biological target: T1, HbAlc epitope of hemoglobin in lysed blood (Homo sapiens, UniProt P68871); test: Blood denaturing for electrochemical HbAlc immunoassay
T1 construct: from tissue; host or cells: whole blood, lysed (freeze/thaw) and denatured
Source text: Blood lysis is necessary to release the hemoglobin followed by denaturing to expose the HbAlc epitope. Lysis can easily be accomplished via surfactants, osmotic effects of dilution with water, and directly by many denaturants. […] Conversely, denaturing the lysed blood with a variety of known denaturants to expose the HbAlc epitope has shown significant suppression of the electrochemical response, inhibiting measurement of an HbAlc dose response.
Denaturing the sample for antibody recognition without severely fouling the electrode surface is important for successful development of an HbAlc immunoassay. Although LiSCN has been used almost exclusively to show feasibility, it has many limitations that would hinder its use in the disposable. Citric acid, a solid at RT may offer benefits as a denaturant if it could be dried onto a strip followed by a diluent to adjust the pH to neutral. Acid or base blood denaturing followed by a final pH adjustment with a buffered diluent is an area worth further evaluation. One problem that was initially encountered was precipitation in adjusting the pH back to neutral, which can be overcome by using a different buffer or with the addition of surfactants.

HbA0 antibody = test: Inhibition reversal with A0HB-peptide#1; format: binding
Experimental: Mediator concentration dose response, inhibition with antibody and reversal with a BSA—Alc polyhaptan were evaluated and summarized in Table 5.

[2] = Storage stability of osmium mediator-peptide conjugates; conditions: for Stability in solution: stored as solution
Experimental: Stability of the mediator labels were also evaluated by monitoring % inhibition values over time.

Zymed rabbit antibodies = test: Inhibition of osmium mediator label current with antibody; format: binding
Sheep B<HBA0> = test: as above; format: binding
Source text: HbAlc assay requires measuring both Al c concentration and total hemoglobin concentration and reports the results as a ratio of these two measurements (%HbAlc). It is advantageous to assay both Alc and total hemoglobin using same principle because ratioing would minimize biases due to environmental effects. Thus antibody has been raised to bind specifically to hemoglobins with unglycosylated N-terminus, i.e. with an epitope sequence of Val-His-Leu-Thr(SEQ ID NO:5). Similarly, nonnative amino acid is added to the sequence to facilitate conjugation. The peptides used for total hemoglobin measurement is termed as A0 peptide. A0 peptides that have been used in the preparation of Os mediator-peptide conjugates include Val-His-Leu-Thr-Cys(SEQ ID NO:6) and Val-His-Leu-Thr-Lys(SEQ ID NO:7).

[3] = tested on: PAB IS (polyclonal immunosorbent purified HbAlc antibody); test: as above; format: binding, sheep
Source text: 3. Antibodies for the analytes (HbAlc and HbA0) which react specifically with the N-terminal peptides which have been incorporated into the conjugate are provided by standard methods for producing polyclonal antibodies. In this case, sheep were immunized with carrier proteins to which were conjugated the synthetic peptide sequences for HbAlc and HbA0. Following the appropriate immunization schedule, the sheep were bled, and the antibody isolated from the blood via ion exchange chromatography, followed by immunosorbent purification on a column of the same N-terminal peptide with a different linker.
(§1) Polyclonal DE (ion-exchange) purified sheep antibody is used in the TinaQuant HbAlc assay. IS (immunosorbent) antibody is prepared using standard IS purification methodology. Samples of a monoclonal antibody were also obtained for evaluation. Inhibition curves were performed in solution with all mixing occurring in microcentrifuge tubes. Inhibition curves with the three hemoglobin Alc antibodies (PAB IS, PAB DE, and MAB) were generated by fixing OS—DSG—Alc at 5 μM and varying the antibody concentration. […] From the inhibition curves we were able to select reasonable concentrations of antibody for maximum reversal with Alc samples.
While these feasibility studies for a HbAlc immunoassay used an enzyme mediated amplification method. […]

[4] = tested on: PAB DE (polyclonal ion-exchange purified HbAlc antibody); test: as above; format: binding, sheep
Experimental: as §1
(§2) While these feasibility studies for a HbAlc immunoassay used an enzyme mediated amplification method. (Glucdor/PQQ/glucose was used to regenerate reduced mediator after oxidation at the electrode surface providing a higher diffusion controlled current is given by the cottrell equation), they are considered to be indicative of results attainable with the use of IDA electrodes with bipotentiostatic control in accordance with this invention.

[5] = tested on: MAB (monoclonal HbAlc antibody); test: as above; format: binding
Experimental: as §1, §2

glucose oxidase = glucose oxidase (Aspergillus niger, UniProt P13006); conditions: with glucose oxidase; cited from earlier work
Sequence of glucose oxidase (P13006 17-605, species assumed): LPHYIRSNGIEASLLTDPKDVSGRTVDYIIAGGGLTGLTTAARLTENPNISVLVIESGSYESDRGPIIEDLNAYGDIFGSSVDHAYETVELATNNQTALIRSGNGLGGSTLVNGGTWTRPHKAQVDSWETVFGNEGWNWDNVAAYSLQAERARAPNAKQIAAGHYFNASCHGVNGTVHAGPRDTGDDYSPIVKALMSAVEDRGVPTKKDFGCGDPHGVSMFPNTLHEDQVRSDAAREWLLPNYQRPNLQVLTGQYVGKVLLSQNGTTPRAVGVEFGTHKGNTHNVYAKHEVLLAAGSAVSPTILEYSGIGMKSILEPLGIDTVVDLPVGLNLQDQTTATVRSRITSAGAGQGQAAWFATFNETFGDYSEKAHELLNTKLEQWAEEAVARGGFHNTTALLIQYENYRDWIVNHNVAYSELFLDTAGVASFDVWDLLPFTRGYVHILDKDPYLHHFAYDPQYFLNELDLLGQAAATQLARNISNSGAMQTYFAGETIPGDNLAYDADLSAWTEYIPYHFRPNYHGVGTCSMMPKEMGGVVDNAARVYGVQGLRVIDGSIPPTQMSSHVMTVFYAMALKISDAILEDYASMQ

T1 sequence (P68871 2-147 limits assumed): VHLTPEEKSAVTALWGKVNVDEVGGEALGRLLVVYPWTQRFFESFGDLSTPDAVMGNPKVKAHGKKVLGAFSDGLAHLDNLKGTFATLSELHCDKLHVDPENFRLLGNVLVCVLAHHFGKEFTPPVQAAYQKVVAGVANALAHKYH

[O-][Cl+3]([O-])([O-])O [Perchloric Acid]
Evidence of blood denaturing [1]: Evidence of blood denaturing was seen by all: “solution

Cl [Hydrochloric Acid]
Evidence of blood denaturing [1]: Evidence of blood denaturing was seen by all: “solution

CCCCCCCCCCCCCC[N+](C)(C)C.[Br-] [TTAB, Tetra decyltrimethyl ammonium bromide]
Evidence of blood denaturing [1]: Evidence of denaturing: “solution turned green”

N#C[S-].[Li+] [LiSCN]
Blood HbAlc dose response with denatured blood [1]: able to expose the Alc epitope and minimize protein fouling enough to measure an HbAlc dose response

CC(C)CC(NC(=O)C(Cc1cnc[nH]1)NC(=O)C(N)C(C)C)C(=O)NC(C(=O)NC(CCCCNC(=O)CCCCCN1C(=O)CC(SCC(=O)NCCc2c[n+]([Os]34([Cl])([n+]5ccccc5-c5cccc[n+]53)[n+]3ccccc3-c3cccc[n+]34)c[nH]2)C1=O)C(=O)O)C(C)O (stereo not drawn) [Os-SATA-A0]
Reversal (HbA0 antibody): No | Stability in solution [2]: unstable in solu- | Inhibition with Zymed rabbit antibodies (Zymed rabbit antibodies): No | Inhibition with Antibody Sheep B<HBA0> (Sheep B<HBA0>): ≤ 84%

O=C(O)CC(O)(CC(=O)O)C(=O)O [citric acid]
Blood HbAlc dose response with denatured blood [1]: able to expose the Alc epitope and minimize protein fouling enough to measure an HbAlc dose response | Evidence of blood denaturing [1]: Evidence of blood denaturing was seen by all: “solution

CC(C)CC(NC(=O)C(Cc1cnc[nH]1)NC(=O)C(NCC1(O)OCC(O)C(O)C1O)C(C)C)C(=O)NC(C(=O)NC(CCCCNC(=O)CCCC(=O)NCCc1c[n+]([Os]23([Cl])([n+]4ccccc4-c4cccc[n+]42)[n+]2ccccc2-c2cccc[n+]23)c[nH]1)C(=O)O)C(C)O (stereo not drawn) [Os-DSG-Alc]
Stability in lyophilized form ([2]; lyophilized): stable | Stability frozen in solution ([2]; −20° C., 40 and 80 μM): stable | Inhibition with Antibody PAB IS [3]: PAB IS (≦91%) | Inhibition with Antibody PAB DE [4]: PAB DE (≦87%) | Inhibition with Antibody MAB [5]: MAB (≦78%)

CC(C)CC(NC(=O)C(Cc1cnc[nH]1)NC(=O)C(NCC1(O)OCC(O)C(O)C1O)C(C)C)C(=O)NC(C(=O)NC(CCCCNC(=O)CCCCCN1C(=O)CC(SCC(=O)NCCc2c[n+]([Os]34([Cl])([n+]5ccccc5-c5cccc[n+]53)[n+]3ccccc3-c3cccc[n+]34)c[nH]2)C1=O)C(=O)O)C(C)O (stereo not drawn) [Os-SATA-Alc]
Stability in solution [2]: Stability similar | Inhibition with Antibody PAB IS [3]: PAB IS (≦44%)

N#C[S-].[K+] [KSCN]
Blood HbAlc dose response with denatured blood [1]: Initial work did not show a dose response with KSCN

[Na+].[OH-] [NaOH]
Evidence of blood denaturing [1]: Evidence of denaturing: “solution turned brown.”

O=S(=O)(O)O [Sulfuric Acid]
Evidence of blood denaturing [1]: Evidence of blood denaturing was seen by all: “solution

bis(bipyridyl) imidazolyl chloroosmium
mediation kinetics relative to ferricyanide (glucose oxidase): about 500 times faster
